# Test results taken from publication PMC8318231, “Rate-of-Kill (RoK) assays to triage large compound sets for Chagas disease drug discovery: Application to GSK Chagas Box” (PLoS Neglected Tropical Diseases, 2021).
# Tested on: T. cruzi intracellular amastigotes in H9c2 cells
# Experiment: Rate-of-Kill (RoK) high-content imaging assay, amastigotes per cell (AM/CELL) and curve descriptors
# Type: cell-based, Trypanosoma cruzi
# Set-up: key to ME_24h / ME_48h / ME_72h: % reduction in parasite burden (cidal response); t50pct_MCC50 / t50pct_Cmax: unit not given here
# Conditions: for ME_24h: 24h; for ME_48h: 48h; for ME_72h: 72h; for t50%_Cmax / tlag_Cmax / t50pct_Cmax: at Cmax; for ME_24h (%): maximum effect at 24 h; for ME_24h (%) / ME_48h (%) / ME_72h (%): RoK assay; for ME_48h (%): maximum effect at 48 h; for ME_72h (%): maximum effect at 72 h; for ME 24h (maximum effect at 24 hours, intracellular amastigotes): maximum percentage of parasite burden reduction reached by any concentration
# Procedure, shortened: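 H9c2 cardiomyocytes infected with T. cruzi trypomastigotes (MOI 8, 18 h), then compounds tested at 5 μM single shot or 11-point 1/3 dilution from 50 μM. DRAQ5-stained nuclei imaged over a time course. Amastigotes per cell normalised to infected cells at 4 h (0%) and non-infected cells (100%).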
SMILES,ME_24h (figure 5),ME_48h (figure 5),ME_72h (figure 5),MCC50 (RoK curve descriptor),MCCE (RoK curve descriptor),"AM/CELL NORM (Time 4, sheet figure 4 A)","AM/CELL NORM (Time 24, sheet figure 4 A)","AM/CELL NORM (Time 48, sheet figure 4 A)","AM/CELL NORM (Time 72, sheet figure 4 A)",t50%_Cmax,tlag_Cmax,t50pct_Cmax (figure 5),tlag_Cmax (figure 5),"t50pct_MCC50 (at MCC50, figure 5)","tlag_MCC50 (at MCC50, figure 5)",MCCE (figure 5),ME_24h (%),ME_48h (%),ME_72h (%),"ME 24h (maximum effect at 24 hours, intracellular amastigotes)",also measured
COc1ccc(C2CC(c3ccccc3Cl)=NN2C(=O)CNC(=O)C2CCC2)cc1 (stereo not drawn) [TCMDC-143130],26.5695,65.3197,85.0018,5.6 µM,1.9 µM,21.8567,26.5695,65.3197,85.0018,48.0 h,4.0 h,48,4,72,4,1.852,26.6%,65.3%,85.0%,26.5695%,"t50%_MCC50 (at MCC50): 72.0 h; tlag_MCC50 (at MCC50): 4.0 h; MCC50 (figure 5, in µM): 5.556"
Cc1[nH]nc2c1C(c1ccc(OCc3ccccc3F)cc1)SCC(=O)N2 (stereo not drawn) [TCMDC-143328],2.825,-7.539,-52.7101,–,5.6 µM,25.0577,-15.4729,-7.539,-52.7101,–,24.0 h,72,24,72,72,5.556,2.8%,-7.5%,-52.7%,2.825%,MCC50 (figure 5): 50 µM
CCCN1CCN(Cc2ccc(S(=O)(=O)Nc3cccc(C)c3)cc2)CC1.O=C(O)C(F)(F)F.O=C(O)C(F)(F)F [TCMDC-143550],-35.0895,33.2327,65.1227,1.9 µM,0.6 µM,-2.745,-35.0895,33.2327,54.4775,72.0 h,24.0 h,72,24,72,24,0.6173,-35.1%,33.2%,65.1%,-35.0895%,"t50%_MCC50 (at MCC50): 72.0 h; tlag_MCC50 (at MCC50): 24.0 h; MCC50 (figure 5, in µM): 1.852"
CC(C)Oc1cccc(N2CCC(C(=O)N3CCCN(C(C)C)CC3)CC2)c1.Cl [TCMDC-143432],-31.9347,48.3783,79.9841,1.9 µM,1.2 µM,-8.446,-20.4309,59.253,56.8532,60.0 h,24.0 h,60,24,72,24,1.235,-31.9%,48.4%,80.0%,-15.8852%,"t50%_MCC50 (at MCC50): 72.0 h; tlag_MCC50 (at MCC50): 24.0 h; MCC50 (figure 5, in µM): 1.852"
Cc1nc2nc(C)c(Cc3ccc(C(C)C)cc3)c(=O)n2[nH]1 [TCMDC-143087],30.2741,57.5973,64.9642,0.6 µM,0.3 µM,2.257,40.319,64.8982,80.3688,60.0 h,4.0 h,60,4,72,38,0.3099,30.3%,57.6%,65.0%,41.0116%,"ME (maximum effect) in RoK assay (in words): positive value of ME from 24 hours; tlag (in words): low values of tlag; ME / cidal effect at 72 hours (72 hours): ≤ 65%; t50%_MCC50 (at MCC50): 72.0 h; tlag_MCC50 (at MCC50): 4.0 h; MCC50 (figure 5, in µM): 25.3086"
N#Cc1cc(N2CCCC2=O)ccc1Sc1ccccc1CO [TCMDC-143604],-55.9743,36.5881,78.1794,1.9 µM,0.6 µM,9.146,-84.052,29.3818,78.3167,72.0 h,24.0 h,72,24,72,24,0.6173,-56.0%,36.6%,78.2%,-55.4036%,"t50%_MCC50 (at MCC50): 72.0 h; tlag_MCC50 (at MCC50): 24.0 h; MCC50 (figure 5, in µM): 1.852"
O=c1[nH]ccc2ccc(-c3ccncc3)cc12 [TCMDC-143631],-43.2523,-170.763,18.409,–,0.6 µM,-16.1027,-43.2523,-202.655,18.409,–,48.0 h,72,48,72,72,0.6173,-43.3%,-170.8%,18.4%,-43.2523%,MCC50 (figure 5): 50 µM
COc1ccc(NS(=O)(=O)c2cccc(NC(=O)c3cc(F)cc(F)c3)c2)cc1 [TCMDC-143108],74.207,103.042,85.1326,5.6 µM,1.9 µM,–,–,–,–,24.0 h,4.0 h,24,4,48,14,1.852,74.2%,103.0%,85.1%,70.2211%,"AM/CELL NORM (Time 4, figure 4 A): 3.957; AM/CELL NORM (Time 24, figure 4 A): 27.4841; AM/CELL NORM (Time 48, figure 4 A): 38.7704; AM/CELL NORM (Time 72, figure 4 A): 44.9716; t50%_MCC50 (at MCC50): 48.0 h; tlag_MCC50 (at MCC50): 14.0 h; MCC50 (figure 5, in µM): 5.556"
OCCCNc1nc(Nc2ccncc2)nc2ccccc12 [TCMDC-143476],-15.4195,-2.754,-23.113,–,0.6 µM,-9.731,-26.5514,-22.3232,-41.9873,–,24.0 h,72,24,72,72,0.6173,-15.4%,-2.8%,-23.1%,-15.4195%,MCC50 (figure 5): 50 µM
CC(=Cc1ccccc1)CN1CCC(=O)N(Cc2cccnc2)CC1 [TCMDC-143421],-70.7645,-276.175,-1.901,–,1.9 µM,-0.3924,-98.2079,-300.018,-16.9527,–,48.0 h,72,48,72,72,1.852,-70.8%,-276.2%,-1.9%,-70.7645%,MCC50 (figure 5): 50 µM
CC(C)N(C(=O)CN1C(=O)C(N)C(=O)N(c2ccccc2)c2ccccc21)c1ccccc1 (stereo not drawn) [TCMDC-143071],-154.934,-40.5762,63.3605,5.6 µM,0.6 µM,-6.592,-184.227,-40.5762,57.0597,72.0 h,24.0 h,72,24,72,24,0.6173,-154.9%,-40.6%,63.4%,-154.934%,"t50%_MCC50 (at MCC50): 72.0 h; tlag_MCC50 (at MCC50): 24.0 h; MCC50 (figure 5, in µM): 5.556"
